One series concerns the target T1, GLP-1R (Homo sapiens, UniProt P43220).
T1 construct: expressed in transfected cells
Kind of series: GLP-1R agonist activity assay, luciferase reporter gene in stably transfected CHO-K1 cells. The class given is cell-based. The settings on record: CRE-luciferase reporter, stimulation for 6 h. From the text: GLP-1R agonist activity was detected using luciferase reporter gene assay (Jonathan W Day et, al.: Nat Chem Biol. 2009 October; 5 (10): 749-57). Humanized GLP-1R gene was cloned into mammalian cell expression plasmid pCDNA3.1 to construct recombinant expression plasmid pCDNA3.1-GLP-1R, and at the same time, luciferase full-length gene was cloned into pCRE plasmid to get pCRE-Luc recombinant plasmid. The pcDNA3.1-GLP-1R and pCRE-Luc plasmids were transfected into CHO-K1 cells at a molar ratio of 1:10, and the stably transfected cell strains were screened. Cells were cultured in a 9-cm cell culture dish with DMEM/F12 medium containing 10% FBS and 300 μg/ml G418. When the confluence reached about 90%, the culture supernatant was discarded. […] 2 ml DMEM/F12 medium containing 10% FBS and 300 μg/ml G418 was added for resuspension, and the number of cells was counted. […] Dulaglutide (Trade name: Trulicity®)) were diluted with DMEM/F12 medium containing 1% BSA to a series of defined concentration, 27 added into cell culture wells at 100 μl/well, and detected after stimulation for 6 h. The samples were detected according to the specification of Lucifersae reporter kit (Ray Biotech, 29 Cat: 68-LuciR-5200). […]
(In a reporter assay the amount or activity of a reporter protein is the signal.)

Series [1] is classed as in vitro ADME, rat. Here is the method: In this example, the serum stability of the incretin analogue […] was determined by the following steps: (1) The incretin analogues […] and the control (Dulaglutide) were formulated with 5 mM Tris-HCl, pH 8.5, and 0.02% TWEEN-80 solution into solutions at a concertration of 1.0 mg/ml, which were sterilized and filtered (0.22 μm, Millipore SLGP033RB), then diluted 10-fold with rat serum, mixed evenly and divided into sterile centrifuge tubes; […] (3) The GLP-1R agonist activity was detected.

The conditions of series [2]: cited from earlier work.

Read-outs that look alike come from different tables or passages of the source. Starred links: 1 amine or outer side, 2 acyl side, 3 side chain; linkers in the order of their positions; H or OH if unused. Residues, ends and D or L forms follow the SMILES beside them. Groups on a side chain read outwards from the residue. *: point of attachment. γGlu = O=C(O)[C@H](CCC(=O)[*:2])N[*:1]; Palmitoyl = CCCCCCCCCCCCCCCC(=O)*

T1 sequence (P43220 24-463): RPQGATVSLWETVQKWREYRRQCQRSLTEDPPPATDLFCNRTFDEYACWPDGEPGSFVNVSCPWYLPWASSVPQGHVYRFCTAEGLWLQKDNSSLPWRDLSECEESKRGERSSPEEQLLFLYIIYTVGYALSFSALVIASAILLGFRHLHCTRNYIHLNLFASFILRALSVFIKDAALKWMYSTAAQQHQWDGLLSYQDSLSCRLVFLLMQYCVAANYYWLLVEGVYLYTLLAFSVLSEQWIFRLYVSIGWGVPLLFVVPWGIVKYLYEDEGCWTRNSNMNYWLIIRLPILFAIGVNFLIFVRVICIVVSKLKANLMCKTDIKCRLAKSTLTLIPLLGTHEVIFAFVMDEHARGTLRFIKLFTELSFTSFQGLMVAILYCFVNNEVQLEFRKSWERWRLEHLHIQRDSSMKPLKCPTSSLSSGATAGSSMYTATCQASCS

Dulaglutide: the 50% effective concentration (EC50) in the series with GLP-1R turned out to be 0.01 nM.

`CCCCCCCCCCCCCCCC(=O)N[C@@H](CCC(=O)NCCCC[C@H](NC(=O)[C@H](CC(=O)O)NC(=O)[C@H](CO)NC(=O)[C@@H](NC(=O)[C@H](Cc1ccccc1)NC(=O)[C@@H](NC(=O)CNC(=O)[C@H](CCC(=O)O)NC(=O)[C@H](CO)NC(=O)[C@@H](N)Cc1ccc(O)cc1)[C@@H](C)O)[C@@H](C)O)C(=O)N[C@@H](CO)C(=O)N[C@@H](CCCCN)C(=O)N[C@@H](Cc1ccc(O)cc1)C(=O)N[C@@H](CC(C)C)C(=O)N[C@@H](CC(=O)O)C(=O)N[C@@H](CO)C(=O)N[C@@H](CCC(N)=O)C(=O)N[C@@H](C)C(=O)N[C@@H](C)C(=O)N[C@@H](CCC(N)=O)C(=O)N[C@@H](CC(=O)O)C(=O)N[C@@H](Cc1ccccc1)C(=O)N[C@H](C(=O)N[C@@H](CCC(N)=O)C(=O)N[C@@H](Cc1c[nH]c2ccccc12)C(=O)N[C@@H](CC(C)C)C(=O)N[C@@H](CC(C)C)C(=O)N[C@@H](C)C(=O)NCC(=O)NCC(=O)N1CCC[C@H]1C(=O)N[C@@H](CO)C(=O)N[C@@H](CO)C(=O)NCC(=O)N[C@@H](C)C(=O)N1CCC[C@H]1C(=O)N1CCC[C@H]1C(=O)N1CCC[C@H]1C(=O)N[C@@H](CO)C(N)=O)C(C)C)C(=O)O` [P3YELAN] (H-YSEGTFTSDK([γGlu-Palmitoyl])SKYLDSQAAQDFVQWLLAGGPSSGAPPPS-NH2): the “residual GLP-1R agonist activity over time in serum” value in series [1] is “maintains a higher GLP-1R agonist activity in a long time”.

Semeglutide: the results for the “average clinical weight loss” value in series [2] (0.5 mg treatment group) and in series [2] (1.0 mg treatment group) were 4.2 kg and 5.5 kg, respectively.

A word on the EC50: it is the concentration giving half of the maximal effect. Read a high EC50 as a need for much substance.
